{
  "source": "patent US10329542B2",
  "about": "“HBV RNAse H purification and enzyme inhibitors” (Saint Louis University, priority 2012, dated 2019)",
  "key": {"[1]": {"biological_target": "HCV RNA-directed RNA polymerase (Hepatitis C virus genotype 1a, UniProt P27958)", "sequence (P27958 2421-3011)": "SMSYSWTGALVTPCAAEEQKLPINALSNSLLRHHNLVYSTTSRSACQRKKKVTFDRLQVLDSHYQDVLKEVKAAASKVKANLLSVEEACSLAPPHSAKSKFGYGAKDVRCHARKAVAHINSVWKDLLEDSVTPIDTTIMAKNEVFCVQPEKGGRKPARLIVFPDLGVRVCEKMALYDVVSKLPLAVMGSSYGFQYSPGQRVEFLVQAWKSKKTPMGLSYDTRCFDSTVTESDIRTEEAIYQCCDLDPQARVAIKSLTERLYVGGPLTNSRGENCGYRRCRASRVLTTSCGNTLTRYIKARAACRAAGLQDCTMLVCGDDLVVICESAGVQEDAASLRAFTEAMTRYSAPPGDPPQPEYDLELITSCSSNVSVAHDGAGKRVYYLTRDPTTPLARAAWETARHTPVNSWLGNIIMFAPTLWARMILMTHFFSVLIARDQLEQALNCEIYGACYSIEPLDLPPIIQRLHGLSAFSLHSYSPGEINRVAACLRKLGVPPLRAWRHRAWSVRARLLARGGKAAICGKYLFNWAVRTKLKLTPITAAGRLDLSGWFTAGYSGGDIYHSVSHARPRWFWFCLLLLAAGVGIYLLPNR", "test": "Primed homopolymeric RNA (poly-G) synthesis assay", "assay_type": "biochemical", "conditions": "10 μM", "method": "FIGS. 9A-C. Specificity of anti-HBV RNAseH compounds. (FIG. 9A) Inhibition of HBV genotype D RNAseH by irrelevant compounds at 10 μM in the oligonucleotide-directed RNAseH assay. Compound #4 was employed as an example HBV RNAseH inhibitor. […] The ability of compounds #5, 6 and 8 to inhibit production of poly-G by the HCV RNA-directed RNA polymerase was measured in a primed homopolymeric RNA synthesis assay (Cao, et al., 2011. The compounds were employed at 10 μM. DMSO, vehicle control. (FIG. 9C) Dose-responsiveness of HBV RNAseH inhibition. The effects of compounds #6, 8, and 12 on the RNAseH activity of HRHPL (genotype D) were measured at concentrations ranging from 0.5 to 50 μM. The dose-response profile is plotted for compound #12."}, "HBV genotype A": {"test_system": "HBV genotype A", "conditions": "10 μM; Tavis et al., 2013; cited from earlier work"}, "[2]": {"biological_target": "T1, HBV genotype D RNAseH (HRHPL) (Hepatitis B virus genotype D subtype ayw, UniProt P03156, INS679M)", "T1 construct": "HRHPL contains HBV genotype D (Genbank V01460) polymerase residues 684-845; made in house; host or cells: E. coli BL21 codon+", "T1 sequence (P03156 680-832, added parts left off, stated change not applied)": "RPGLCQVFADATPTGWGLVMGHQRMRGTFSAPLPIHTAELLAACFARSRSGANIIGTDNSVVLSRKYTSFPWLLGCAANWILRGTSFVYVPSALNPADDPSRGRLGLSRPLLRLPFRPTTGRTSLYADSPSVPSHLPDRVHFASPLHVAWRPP", "conditions": "Tavis et al., 2013; read-out: IC50 against the HBV RNAseH, previously reported; cited from earlier work"}, "Huh7 cells": {"test_system": "Huh7 cells", "test": "CytoTox-Glo membrane integrity assay in Huh7 cells", "assay_type": "cell-based, human", "conditions": "four days", "method": "(§1) Toxicity of βTJ in Huh7 cells was determined with 3-(4,5-dimethylthiazol-2-yl)-5-β-carboxymethoxyphenyl)-2-(4-sulfophenyl)-2H-tetrazolium (MTS) assays that measures mitochondrial dysfunction employing the Cell Titre 96 aqueous nonradioactive cell proliferation assay (Promega), and with the CytoTox-Glo assay (Promega) that reflects cellular integrity. Huh7 and HepG2 cells (1×10^4) were plated in 96-well tissue culture plates, medium containing βTJ at the indicated concentrations was added the next day, the medium was replaced with fresh medium containing βTJ after two days, and after four days the MTS or CytoTox-Glo assays were conducted according to the manufacturer's instructions."}, "HepG2 cells": {"test_system": "HepG2 cells", "test": "MTS cytotoxicity assay in HepG2 cells", "assay_type": "cell-based, human", "conditions": "four days", "method": "as §1"}, "HIV": {"test_system": "HIV", "conditions": "cited from earlier work"}, "HIV-1 RNAseH": {"biological_target": "HIV-1 RNAseH (Human immunodeficiency virus type 1 group M subtype B, UniProt P04585)", "conditions": "read-out: IC50 against the HIV RNAseH; cited from earlier work"}, "CEM-SS cells": {"test_system": "CEM-SS cells", "conditions": "cited from earlier work"}},
  "data": [
    {"smiles": "Cc1c2cc(O)c(=O)cc-2oc2cc(O)c(O)cc12", "note": "[Compound 8]", "values": [
      {"measurement": "Inhibition of poly-G production by HCV RNA polymerase", "setting": "[1]", "result": "do not significantly inhibit"}
    ]},
    {"smiles": "NCc1ccc(-c2ccc(Cc3cc(=O)n(O)c4ncccc34)cc2)cc1", "note": "[Compound 12, napthyridinone]", "values": [
      {"measurement": "Block of viral replication in Huh7 cells", "setting": "HBV genotype A", "result": "~93", "unit": "%"},
      {"measurement": "IC50", "setting": "[2]", "result": 2500, "unit": "nM"}
    ]},
    {"smiles": "CC(C)c1ccc(O)c(=O)c(O)c1", "note": "[Compound 46, beta-thujaplicinol]", "values": [
      {"measurement": "CC50", "setting": "Huh7 cells", "result": "> 150", "unit": "µM"},
      {"measurement": "CC50", "setting": "HepG2 cells", "result": "16.7 ± 3.7", "unit": "µM"},
      {"measurement": "Activity against HIV replication in cells", "setting": "HIV", "result": "inactive"},
      {"measurement": "IC50", "setting": "HIV-1 RNAseH", "result": "200 to 300", "unit": "nM"},
      {"measurement": "CC50", "setting": "CEM-SS cells", "result": 2300, "unit": "nM"}
    ]}
  ]
}
